In patent US8008291B2 (Mimetica Pty Ltd, priority 2008, dated 2011):

Target: T1, human MC5R (hMC5R) (Homo sapiens, UniProt P33032)
T1 construct: purchased Perkin Elmer RBXMC5M400UA
Assay: Human MC5R radioligand binding assay (membranes, [125I] NDP-MSH displacement)
Conditions: hMC5R binding; tested as trifluoroacetate or hydrochloride salts, or free bases; read-out: MC5R radioligand IC50
Procedure: Assessments of compound binding to human MC5R (hMC5R) ) by displacement of an ^125I-labeled NDP-MSH receptor ligand peptide were performed essentially as described in the data sheets produced by Perkin Elmer to accompany their frozen hMC5R membranes (Perkin Elmer catalog number RBXMC5M400UA).
[^125I] NDP-MSH: radiolabeled in house and purified by HPLC:
• Na^125I (0.5 mCi, 17.4 Ci/mg) was added to 50 μL sodium phosphate (50 mM, pH7.4) in an eppendorf tube precoated with IODOGEN. After incubation for 10 mins the phosphate buffer containing the iodine was added to NDP-MSH (10 ul at 1 mg/mL) in a separate eppendorf tube. This was incubated for a further 10 mins. The iodinated NDP-MSH was purified by HPLC on a Zorbax SB 300 column using solvent A: 0.05% TFA and solvent B: 90% acetonitrile 0.045% TFA with a linear gradient, 0-67% B over 60 mins. […] Resuspended membranes were kept on ice until they were added to the wells of the plate. Binding Protocol for 400 microassays per vial: • Assays were performed in 96 well polypropylene plates. […] This was incubated for 1 hr at 37° C.

T1 sequence (P33032 whole entry): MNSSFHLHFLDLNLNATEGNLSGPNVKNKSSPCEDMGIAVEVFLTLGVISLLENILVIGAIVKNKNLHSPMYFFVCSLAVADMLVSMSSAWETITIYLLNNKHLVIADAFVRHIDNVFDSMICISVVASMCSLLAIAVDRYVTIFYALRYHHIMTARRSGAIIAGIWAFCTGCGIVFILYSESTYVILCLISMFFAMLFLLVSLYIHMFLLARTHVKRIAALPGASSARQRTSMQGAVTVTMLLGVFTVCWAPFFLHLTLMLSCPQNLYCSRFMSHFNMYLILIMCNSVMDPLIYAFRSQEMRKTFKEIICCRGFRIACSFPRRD

Row | Structure (SMILES) | IC50 [nM]
1 | N=C(N)NCCC[C@@H]1N[C@H](CNC(=O)[C@H]2Cc3ccccc3CN2)CCN(CC(c2ccccc2)c2ccccc2)C1=O [Compound 134, (R)—N-(((3S,5S)-1-(2,2-diphenylethyl)-3-(3-guanidinopropyl)-2-oxo-1,4-diazepan-5-yl)methyl)-1,2,3,4-tetrahydroisoquinoline-3-carboxamide] | < 1000
2 | N=C(N)NCCC[C@@H]1N[C@H](CNC(=O)c2cc3ccccc3s2)CCN(CC(c2ccccc2)c2ccccc2)C1=O [Compound 135, N-(((3S,5S)-1-(2,2-diphenylethyl)-3-(3-guanidinopropyl)-2-oxo-1,4-diazepan-5-yl)methyl)benzo[b]thiophene-2-carboxamide] | < 1000
3 | COc1ccccc1/C=C/C(=O)NC[C@@H]1CCN(CC(c2ccccc2)c2ccccc2)C(=O)[C@H](CCCNC(=N)N)N1 [Compound 169, (E)-N-(((3S,5S)-1-(2,2-diphenylethyl)-3-(3-guanidinopropyl)-2-oxo-1,4-diazepan-5-yl)methyl)-3-(2-methoxyphenyl)acrylamide] | < 1000
4 | C/C(=C\c1ccccc1)C(=O)NC[C@@H]1CCN(CC(c2ccccc2)c2ccccc2)C(=O)[C@H](CCCNC(=N)N)N1 [Compound 173, (E)-N-(((3S,5S)-1-(2,2-diphenylethyl)-3-(3-guanidinopropyl)-2-oxo-1,4-diazepan-5-yl)methyl)-2-methyl-3-phenylacrylamide] | < 1000
5 | N=C(N)NCCC[C@@H]1N[C@H](CNC(=O)C2CC2c2ccccc2)CCN(CC(c2ccccc2)c2ccccc2)C1=O (stereo partly drawn) [Compound 174, N-(((3S,5S)-1-(2,2-diphenylethyl)-3-(3-guanidinopropyl)-2-oxo-1,4-diazepan-5-yl)methyl)-2-phenylcyclopropanecarboxamide] | < 1000
6 | N=C(N)NCCC[C@@H]1N[C@H](CNC(=O)/C=C/c2ccccc2O)CCN(CC(c2ccccc2)c2ccccc2)C1=O [Compound 189, (E)-N-(((3S,5S)-1-(2,2-diphenylethyl)-3-(3-guanidinopropyl)-2-oxo-1,4-diazepan-5-yl)methyl)-3-(2-hydroxyphenyl)acrylamide] | < 1000
7 | N=C(N)NCCC[C@@H]1N[C@H](CNC(=O)/C(F)=C/c2ccccc2)CCN(CC(c2ccccc2)c2ccccc2)C1=O [Compound 195, (Z)-N-(((3S,5S)-1-(2,2-diphenylethyl)-3-(3-guanidinopropyl)-2-oxo-1,4-diazepan-5-yl)methyl)-2-fluoro-3-phenylacrylamide] | < 1000
8 | CC(CN1CC[C@@H](CNC(=O)c2ccc3ccccc3c2)N[C@@H](CCCNC(=N)N)C1=O)(c1ccccc1)c1ccccc1 [Compound 200, N-(((3S,5S)-1-(2,2-diphenylpropyl)-3-(3-guanidinopropyl)-2-oxo-1,4-diazepan-5-yl)methyl)-2-naphthamide] | < 1000
9 | N=C(N)NCCC[C@@H]1N[C@H](CNC(=O)c2ccc3ccccc3c2)CCN(CC2CCCCC2)C1=O [Compound 201, N-(((3S,5S)-1-(cyclohexylmethyl)-3-(3-guanidinopropyl)-2-oxo-1,4-diazepan-5-yl)methyl)-2-naphthamide] | < 1000
10 | N=C(N)NCCC[C@@H]1N[C@H](CNC(=O)c2ccc3ccccc3c2)CCN(CC23CC4CC(CC(C4)C2)C3)C1=O [Compound 202, N-(((3S,5S)-1-(1-adamantylmethyl)-3-(3-guanidinopropyl)-2-oxo-1,4-diazepan-5-yl)methyl)-2-naphthamide] | < 1000
11 | C[C@@H](C(c1ccccc1)c1ccccc1)N1CC[C@@H](CNC(=O)c2ccc3ccccc3c2)N[C@@H](CCCNC(=N)N)C1=O [Compound 203, N-(((3S,5S)-1-((S)-1,1-diphenylpropan-2-yl)-3-(3-guanidinopropyl)-2-oxo-1,4-diazepan-5-yl)methyl)-2-naphthamide] | < 100
12 | C[C@H](C(c1ccccc1)c1ccccc1)N1CC[C@@H](CNC(=O)c2ccc3ccccc3c2)N[C@@H](CCCNC(=N)N)C1=O [Compound 204, N-(((3S,5S)-1-((R)-1,1-diphenylpropan-2-yl)-3-(3-guanidinopropyl)-2-oxo-1,4-diazepan-5-yl)methyl)-2-naphthamide] | < 1000
13 | N=C(N)NCCC[C@@H]1N[C@H](CNC(=O)c2ccc3ccccc3c2)CCN(C2CCCCC2)C1=O [Compound 205, N-(((3S,5S)-1-cyclohexyl-3-(3-guanidinopropyl)-2-oxo-1,4-diazepan-5-yl)methyl)-2-naphthamide] | < 1000
14 | C[C@@H](N1CC[C@@H](CNC(=O)c2ccc3ccccc3c2)N[C@@H](CCCNC(=N)N)C1=O)C(F)(c1ccccc1)c1ccccc1 [Compound 206, N-(((3S,5S)-1-((R)-1-fluoro-11-diphenylpropan-2-yl)-3-(3-guanidinopropyl)-2-oxo-1,4-diazepan-5-yl)methyl)-2-naphthamide] | < 1000
15 | CCOc1ccc(/C=C/C(=O)NC[C@@H]2CCN(CC(c3ccccc3)c3ccccc3)C(=O)[C@H](CCCNC(=N)N)N2)cc1 [Compound 210, (E)-N-(((3S,5S)-1-(2,2-diphenylethyl)-3-(3-guanidinopropyl)-2-oxo-1,4-diazepan-5-yl)methyl)-3-(4-ethoxyphenyl)acrylamide] | < 100
16 | NCCC[C@@H]1N[C@H](CNC(=O)c2ccc3cc(Br)ccc3c2)CCN(CC(c2ccccc2)c2ccccc2)C1=O [Compound 211, N-(((3S,5S)-3-(3-aminopropyl)-1-(2,2-diphenylethyl)-2-oxo-1,4-diazepan-5-yl)methyl)-6-bromo-2-naphthamide] | < 100
17 | NCCC[C@@H]1N[C@H](CNC(=O)C=Cc2ccccc2)CCN(CC(c2ccccc2)c2ccccc2)C1=O [Compound 212, N-(((3S,5S)-3-(3-aminopropyl)-1-(2,2-diphenylethyl)-2-oxo-1,4-diazepan-5-yl)methyl)cinnamamide] | < 1000
18 | CCCCC(CC)C(=O)NC[C@@H]1CCN(CC(c2ccccc2)c2ccccc2)C(=O)[C@H](CCCN)N1 (stereo partly drawn) [Compound 221, N-(((3S,5S)-3-(3-aminopropyl)-1-(2,2-diphenylethyl)-2-oxo-1,4-diazepan-5-yl)methyl)-2-ethylhexanamide] | < 10000
19 | CCCCC(CC)C(=O)NC[C@@H]1CCN(CC(c2ccccc2)c2ccccc2)C(=O)[C@H](CCCNC(=N)N)N1 (stereo partly drawn) [Compound 224, N-(((3S,5S)-1-(2,2-diphenylethyl)-3-(3-guanidinopropyl)-2-oxo-1,4-diazepan-5-yl)methyl)-2-ethylhexanamide] | < 1000
20 | N=C(N)NCCC[C@@H]1N[C@H](CNC(=O)c2ccc3ccccc3c2)CCN(c2ccc3ccccc3c2)C1=O [Compound 226, N-(((3S,5S)-3-(3-guanidinopropyl)-1-(naphthalen-2-yl)-2-oxo-1,4-diazepan-5-yl)methyl)-2-naphthamide] | < 10000
21 | N=C(N)NCCC[C@@H]1N[C@H](CNC(=O)c2ccc3ccccc3c2)CCN(CC2c3ccccc3-c3ccccc32)C1=O [Compound 227, N-(((3S,5S)-1-((9H-fluoren-9-yl)methyl)-3-(3-guanidinopropyl)-2-oxo-1,4-diazepan-5-yl)methyl)-2-naphthamide] | < 10000
22 | CC(C)NCCCC[C@@H]1N[C@H](CNC(=O)c2ccc3ccccc3c2)CCN(CC(c2ccccc2)c2ccccc2)C1=O [Compound 229, N-(((3S,5S)-1-(2,2-diphenylethyl)-3-(4-(isopropylamino)butyl)-2-oxo-1,4-diazepan-5-yl)methyl)-2-naphthamide] | < 100
